Results as given in ChEMBL document CHEMBL1201862, “PubChem BioAssay data set” (2004).
Values joined by “and” are separate entries in the source; they are usually repeats but may differ in a detail not shown here. Equal values may be shown once.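 Values below derive from 48-hour exposures of cells grown in 96-well plates, with endpoints linearly interpolated between the two concentrations bracketing the appropriate inhibition level. GI50 = concentration required for 50% inhibition of growth.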 Active and inactive are the calls of the source. Rule as the data show it: active = GI50 up to about 1.1 µM and inactive = higher.

Key:
Assay in all cases: NCI-60 cell line screen, 48 h
A549 = tested on: A549
HCT-15 = tested on: HCT-15
HOP-18 = tested on: HOP-18
HT-29 = tested on: HT-29
IGROV-1 = tested on: IGROV-1
KM-20L2 = tested on: KM-20L2
MOLT-4 = tested on: MOLT-4
Malme-3M = tested on: Malme-3M
NCI-H23 = tested on: NCI-H23
NCI-H522 = tested on: NCI-H522
SK-MEL-28 = tested on: SK-MEL-28
SN12C = tested on: SN12C
SNB-78 = tested on: SNB-78
SW-620 = tested on: SW-620
U-251 = tested on: U-251
UACC-257 = tested on: UACC-257
UACC-62 = tested on: UACC-62
CCRF-CEM = tested on: CCRF-CEM

Measured: GI50

CC1=NN(C(=O)CC(=O)Nc2cccc(Cl)c2)C(=O)C1/N=N/c1ccc(S(N)(=O)=O)cc1 (stereo not given)
inactive: A549 > 100 µM | HOP-18 > 100 µM | HT-29 > 100 µM | IGROV-1 > 100 µM | KM-20L2 > 100 µM | MOLT-4 > 100 µM | Malme-3M > 100 µM | NCI-H23 > 100 µM | NCI-H522 > 100 µM | SK-MEL-28 > 100 µM | SN12C > 100 µM | SNB-78 > 100 µM | SW-620 > 100 µM | U-251 > 100 µM | UACC-257 > 100 µM | UACC-62 > 100 µM
> 100 µM: HCT-15

C[Si](C)(C)C#C[I+]c1ccccc1
inactive: A549 > 100 µM | CCRF-CEM 15.1 µM | HOP-18 75.5 µM | HT-29 32.9 µM | IGROV-1 92 µM | KM-20L2 37.5 µM | MOLT-4 29.4 µM | Malme-3M 41 µM | NCI-H23 36.8 µM | NCI-H522 9.4 µM | SK-MEL-28 39.4 µM | SN12C 21.7 µM | SNB-78 50.2 µM | U-251 38 µM | UACC-257 > 100 µM | UACC-62 33.2 µM
22.5 µM: HCT-15

C/C(=N/OCCC(=O)O)C1CC1
> 100 µM: HCT-15
inactive: A549 > 100 µM | CCRF-CEM > 100 µM | HOP-18 > 100 µM | HT-29 > 100 µM | IGROV-1 > 100 µM | KM-20L2 > 100 µM | Malme-3M > 100 µM | NCI-H23 > 100 µM | NCI-H522 > 100 µM | SK-MEL-28 > 100 µM | SN12C > 100 µM | SNB-78 > 100 µM | SW-620 > 100 µM | U-251 > 100 µM | UACC-62 > 100 µM

CC(C)=CCSC1CC2C(CC1(C)O)C2(C)C (stereo not given)
inactive: A549 11.6 µM and 16.6 µM | HT-29 15.7 µM and 14.9 µM | IGROV-1 19 µM and 16.9 µM | KM-20L2 15.7 µM and 19.1 µM | MOLT-4 13.6 µM and 20.9 µM | Malme-3M 17.3 µM and 16.4 µM | NCI-H23 16.1 µM and 12.5 µM | SK-MEL-28 16.8 µM and 17 µM | SN12C 17 µM and 15.6 µM | SNB-78 23.4 µM and 12 µM | SW-620 19.6 µM and 17.1 µM | U-251 15.2 µM and 14.1 µM | UACC-62 15.4 µM and 17.5 µM
17.3 µM and 16.1 µM: HCT-15

CCOc1ccccc1/N=N/c1c(-c2ccccc2)nn(C(=O)CC(=O)Nc2cccc(C)c2)c1-c1ccccc1
inactive: A549 > 100 µM | CCRF-CEM > 100 µM | HOP-18 > 100 µM | HT-29 39.6 µM | IGROV-1 > 100 µM | KM-20L2 > 100 µM | MOLT-4 > 100 µM | Malme-3M > 100 µM | NCI-H23 > 100 µM | NCI-H522 > 100 µM | SK-MEL-28 > 100 µM | SN12C > 100 µM | SNB-78 > 100 µM | SW-620 > 100 µM | U-251 > 100 µM | UACC-257 > 100 µM | UACC-62 > 100 µM

Cc1ccc(-c2cc(=S)n(-c3ccccc3)c3[nH]c(=S)n(-c4ccccc4)c(=N)c23)cc1
inactive: A549 > 100 µM | CCRF-CEM > 100 µM | HT-29 > 100 µM | IGROV-1 > 100 µM | KM-20L2 > 100 µM | MOLT-4 > 100 µM | Malme-3M > 100 µM | NCI-H23 > 100 µM | NCI-H522 77.8 µM | SK-MEL-28 > 100 µM | SW-620 > 100 µM | U-251 > 100 µM | UACC-257 > 100 µM | UACC-62 > 100 µM
> 100 µM: HCT-15

CN(C)/C(=N/C(=S)Nc1ccccc1)SCc1ccccc1
57.5 µM: HCT-15
inactive: A549 32 µM | CCRF-CEM 11.7 µM | HOP-18 > 100 µM | HT-29 3.88 µM | IGROV-1 74.3 µM | MOLT-4 32.5 µM | Malme-3M 40.2 µM | NCI-H23 40.9 µM | NCI-H522 2.73 µM | SK-MEL-28 42.2 µM | SN12C 66.2 µM | SNB-78 > 100 µM | SW-620 > 100 µM | U-251 49.2 µM | UACC-257 36.6 µM | UACC-62 6.17 µM

COc1ccc2c(c1)[n+]([O-])c(-c1ccccc1Cl)c(N)[n+]2[O-]
39.9 µM: HCT-15
inactive: A549 94.2 µM | HOP-18 > 100 µM | HT-29 62.5 µM | IGROV-1 79.1 µM | KM-20L2 38.8 µM | MOLT-4 96.8 µM | Malme-3M > 100 µM | NCI-H23 37.2 µM | NCI-H522 16.9 µM | SK-MEL-28 > 100 µM | SN12C > 100 µM | SNB-78 > 100 µM | SW-620 61.7 µM | U-251 69.2 µM | UACC-257 36.6 µM

COc1cc(/C=C2\C(=O)N(C(=O)c3ccc(NC(C)=O)cc3)N=C2C)ccc1O
inactive: A549 > 100 µM | CCRF-CEM > 100 µM | HOP-18 > 100 µM | HT-29 > 100 µM | MOLT-4 > 100 µM | Malme-3M > 100 µM | NCI-H23 > 100 µM | NCI-H522 > 100 µM | SK-MEL-28 > 100 µM | SN12C > 100 µM | SNB-78 > 100 µM | SW-620 > 100 µM | UACC-257 > 100 µM

Nc1c(-c2ccc(Br)cc2)[n+]([O-])c2ccccc2[n+]1[O-]
> 100 µM: HCT-15
inactive: A549 92 µM | HOP-18 > 100 µM | HT-29 > 100 µM | IGROV-1 > 100 µM | KM-20L2 > 100 µM | MOLT-4 39.2 µM | Malme-3M > 100 µM | NCI-H23 > 100 µM | NCI-H522 52.6 µM | SK-MEL-28 > 100 µM | SN12C > 100 µM | SNB-78 > 100 µM | SW-620 > 100 µM | U-251 78.2 µM | UACC-257 > 100 µM

CCc1ccccc1NC(=O)C1=C(C)NC(C)=C(C(=O)Nc2ccccc2CC)C1c1ccc(NC(C)=O)cc1
inactive: A549 51.1 µM | CCRF-CEM 18.7 µM | HT-29 37.7 µM | IGROV-1 28.4 µM | KM-20L2 16.4 µM | MOLT-4 15.3 µM | Malme-3M 49.1 µM | NCI-H23 42.7 µM | NCI-H522 20.8 µM | SK-MEL-28 22.2 µM | SN12C 29.8 µM | SNB-78 33.3 µM | SW-620 41.2 µM | U-251 53.6 µM | UACC-257 36.3 µM

OCC1C(/C=C/c2ccoc2)ON2CCCC12 (stereo not given)
inactive: A549 > 100 µM | HT-29 > 100 µM | KM-20L2 > 100 µM | Malme-3M 20.8 µM | NCI-H23 > 100 µM | NCI-H522 > 100 µM | SK-MEL-28 > 100 µM | SN12C > 100 µM | SNB-78 > 100 µM | SW-620 > 100 µM | U-251 > 100 µM | UACC-257 > 100 µM
active: HOP-18 0.279 µM

Cc1c(C(=O)/C=C/c2ccc(N(C)C)cc2)c(=O)n(-c2ccccc2)n1C
inactive: A549 > 100 µM | CCRF-CEM > 100 µM | HT-29 > 100 µM | IGROV-1 > 100 µM | KM-20L2 > 100 µM | MOLT-4 > 100 µM | Malme-3M > 100 µM | NCI-H23 > 100 µM | NCI-H522 > 100 µM | SK-MEL-28 > 100 µM | SN12C > 100 µM | SNB-78 > 100 µM | SW-620 > 100 µM | U-251 > 100 µM | UACC-257 > 100 µM | UACC-62 > 100 µM
> 100 µM: HCT-15

O=[N+]([O-])c1cccc(C2N3CCCCC3[C@@H]3c4[nH]c5ccccc5c4CCN23)c1 (stereo not given in full)
10.4 µM: HCT-15
inactive: A549 14 µM | CCRF-CEM 13.2 µM | HOP-18 54.6 µM | HT-29 6.82 µM | IGROV-1 14.9 µM | KM-20L2 11 µM | MOLT-4 5.85 µM | Malme-3M 2.55 µM | NCI-H23 12.4 µM | SK-MEL-28 16.3 µM | SN12C 14.5 µM | SNB-78 9.79 µM | SW-620 20 µM | U-251 14.1 µM | UACC-257 14 µM | UACC-62 6.79 µM

COc1cc(/C=C/C(=O)c2cccc3ccccc23)cc(OC)c1OC
inactive: A549 8.18 µM | CCRF-CEM 2.56 µM | HOP-18 12.4 µM | HT-29 4.27 µM | IGROV-1 15.4 µM | KM-20L2 3.94 µM | MOLT-4 3.44 µM | Malme-3M 11.4 µM | NCI-H23 5.32 µM | NCI-H522 4.68 µM | SK-MEL-28 6.24 µM | SN12C 3.39 µM | SNB-78 3.44 µM | SW-620 2.75 µM | U-251 6.41 µM | UACC-257 6.37 µM | UACC-62 6.71 µM

COC1(OC)C2(Cl)C3=CCCC=C3C1(Cl)C(Cl)=C2Cl
27.5 µM: HCT-15
inactive: A549 27.2 µM | CCRF-CEM 19.8 µM | HT-29 20.6 µM | IGROV-1 36.5 µM | KM-20L2 23.2 µM | MOLT-4 18.4 µM | Malme-3M 16.7 µM | NCI-H23 21.9 µM | NCI-H522 12.9 µM | SK-MEL-28 30.2 µM | SN12C 28.7 µM | SNB-78 31.8 µM | SW-620 17.5 µM | U-251 30.3 µM | UACC-257 28.4 µM | UACC-62 25.5 µM

Nc1cc(C(=O)NC2C3CC4CC(C3)CC2C4)nc(S)n1 (stereo not given)
> 100 µM: HCT-15
inactive: A549 > 100 µM | CCRF-CEM > 100 µM | HT-29 > 100 µM | IGROV-1 > 100 µM | KM-20L2 > 100 µM | MOLT-4 > 100 µM | Malme-3M > 100 µM | NCI-H23 > 100 µM | NCI-H522 > 100 µM | SK-MEL-28 > 100 µM | SN12C > 100 µM | SNB-78 > 100 µM | SW-620 > 100 µM | U-251 > 100 µM | UACC-257 > 100 µM
